Where a name gives a salt, the structure may show the parent alone.
What was measured:
[1] = reference compound, solvent 0.1M H2SO4; cited from earlier work
[2] = Determination of the fluorescence spectrum of fluorescent dyes; assay type: physicochemical; conditions: for λem (max/nm): ethanol and water (50:50, v/v), 1.0×10^−6 mol/L, excitation at maximum absorption wavelength
Procedure: The fluorescence spectrum was measured using the maximum absorption wavelength in the measured near-infrared spectrum as the excitation wavelength of the fluorescence spectrum. The compounds prepared in Example 1 and Examples 4-6 were accurately weighed to prepare a solution of ethanol and water (50:50, v/v) at a concentration of 1.0×10^−6 mol/L. The emission spectrum of the solution was measured, and the result was shown in FIG. 1. In FIG. 1, 1 represents the intermediate prepared in Example 1, and 2-4 represent the compounds prepared in Examples 4-6, respectively.

[3] = Determination of molar extinction coefficient by UV-visible absorption spectroscopy; assay type: physicochemical; conditions: A=εcl
Procedure: The molar extinction coefficient of the compound was determined by UV-visible absorption spectroscopy. The formula for calculating molar extinction coefficient is as shown in equation (1): A=εcl Equation (1), wherein A represents ultraviolet absorption value, ε represents molar extinction coefficient, c represents concentration of the compound, and l represents thickness of the quartz cell for detection.

[4] = Determination of the absorption spectrum of fluorescent dyes; assay type: physicochemical; conditions: 1.0×10^−5 mol/L in 50% by volume of ethanol
Excerpt: The compounds prepared in Example 1 and Examples 4-6 were accurately weighed to prepare a solution having a concentration of 1.0×10^−5 mol/L using 50% by volume of ethanol. In FIG. 2, 1 represents the intermediate prepared in Example 1, and 2-4 represent the compound prepared in Examples 4-6, respectively.

[5] = Determination of fluorescence quantum yield of fluorescent dyes; assay type: physicochemical; conditions: 20° C., absolute ethanol, quinine sulfate as reference
Procedure: The fluorescence quantum yield of the fluorescent dyes was determined at 20° C., and quinine sulfate (Solvent: 0.1M H2SO4, Quantum yield: 0.56) was used as a reference compound, then the fluorescence quantum yield was calculated by measuring fluorescence integral intensities obtained from the dilute solutions of the fluorescent dyes and the reference compound under the same excitation conditions and the ultraviolet absorption value at this excitation wavelength. The product was dissolved in absolute ethanol.
The formula for calculating fluorescence quantum yield is as shown in equation (2):
[formula] wherein Φ represents quantum yield of the compound to be measured, the subscript R represents reference compound, I represents fluorescence integral intensity, A represents ultraviolet absorption value, and η represents solvent refractive index. Generally, the ultraviolet absorption values A and AR are less than 0.1.

Structure (SMILES) | Quantum yield [1] | Stokes shift (nm) [2] [nm] | λem (max/nm) [2] [nm] | ε × 10^4 (M^−1 cm^−1) [3] | λabs (max/nm) [4] [nm] | Φ (%) [5] [%]
C=C[C@H]1C[N@@]2CC[C@H]1C[C@H]2[C@H](O)c1ccnc2ccc(OC)cc12 [quinine sulfate] | 0.56 | – | – | – | – | –
CC1(C)C(/C=C/C2=C(NCc3cccc(C(=O)O)c3)C(=C/C=C3/N(/C=C/Br)c4ccccc4C3(C)C)/CCC2)=[N+](/C=C/Br)c2ccccc21 [Example 6] | – | 34 | 829 | 9.0 × 10^4 M^−1 cm^−1 | 790 | 89.86
CC1(C)C(/C=C/C2=C(NCO)C(=C/C=C3/N(/C=C/Br)c4ccccc4C3(C)C)/CCC2)=[N+](/C=C/Br)c2ccccc21 [Example 5] | – | 40 | 820 | 8.6 × 10^4 M^−1 cm^−1 | 787 | 86.00
CC1(C)C(/C=C/C2=C(NCC(=O)O)C(=C/C=C3/N(/C=C/Br)c4ccccc4C3(C)C)/CCC2)=[N+](/C=C/Br)c2ccccc21 [Example 4] | – | 38 | 815 | 8.5 × 10^4 M^−1 cm^−1 | 785 | 84.99
